How the values were obtained:
[1] = molecular target: T1, Adenosine receptor A2b (Homo sapiens) (UniProt P29275); experiment: Antagonist activity at human adenosine A2B receptor; assay type: functional
T1 sequence (whole entry): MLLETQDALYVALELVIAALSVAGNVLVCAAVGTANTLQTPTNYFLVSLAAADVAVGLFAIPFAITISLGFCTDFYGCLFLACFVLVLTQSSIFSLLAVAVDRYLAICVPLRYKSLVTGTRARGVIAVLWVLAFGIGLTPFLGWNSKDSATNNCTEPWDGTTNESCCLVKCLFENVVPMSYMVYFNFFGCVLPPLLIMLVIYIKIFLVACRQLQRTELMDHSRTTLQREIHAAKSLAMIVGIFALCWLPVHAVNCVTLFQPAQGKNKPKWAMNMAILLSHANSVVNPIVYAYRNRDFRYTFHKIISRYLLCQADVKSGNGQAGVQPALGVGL

[2] = molecular target: Adenosine receptor A2a (Homo sapiens, UniProt P29274)
Adenosine receptor A2a (Homo sapiens, UniProt P29274), sequence (P29274 whole entry): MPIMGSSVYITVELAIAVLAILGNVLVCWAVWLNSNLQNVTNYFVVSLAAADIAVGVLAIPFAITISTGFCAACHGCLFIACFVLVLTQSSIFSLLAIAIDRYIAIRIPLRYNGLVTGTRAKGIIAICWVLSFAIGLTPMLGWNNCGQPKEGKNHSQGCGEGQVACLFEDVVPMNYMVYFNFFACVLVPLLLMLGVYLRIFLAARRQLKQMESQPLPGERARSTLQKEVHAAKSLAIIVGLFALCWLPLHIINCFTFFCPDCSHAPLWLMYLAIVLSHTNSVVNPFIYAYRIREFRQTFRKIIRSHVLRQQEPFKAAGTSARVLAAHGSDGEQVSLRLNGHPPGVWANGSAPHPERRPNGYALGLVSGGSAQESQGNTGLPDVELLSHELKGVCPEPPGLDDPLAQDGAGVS
Description: Binding affinity to human adenosine A2A receptor

[3] = molecular target: T2, Adenosine receptor A1 (Homo sapiens, UniProt P30542); experiment: Binding affinity to human adenosine A1 receptor
T2 sequence (P30542 whole entry): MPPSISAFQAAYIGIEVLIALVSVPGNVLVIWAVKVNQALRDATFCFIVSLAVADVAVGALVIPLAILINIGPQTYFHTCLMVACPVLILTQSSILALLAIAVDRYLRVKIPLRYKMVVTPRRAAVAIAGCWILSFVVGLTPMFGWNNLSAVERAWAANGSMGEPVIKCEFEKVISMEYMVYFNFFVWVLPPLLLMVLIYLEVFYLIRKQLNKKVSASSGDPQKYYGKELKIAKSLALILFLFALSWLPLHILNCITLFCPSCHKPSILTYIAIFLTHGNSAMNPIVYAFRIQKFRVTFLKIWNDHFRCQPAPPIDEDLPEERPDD

[4] = molecular target: T3, Adenosine receptor A3 (Ovis aries, UniProt P35342); experiment: Binding affinity to sheep adenosine A3 receptor
T3 sequence (P35342 whole entry): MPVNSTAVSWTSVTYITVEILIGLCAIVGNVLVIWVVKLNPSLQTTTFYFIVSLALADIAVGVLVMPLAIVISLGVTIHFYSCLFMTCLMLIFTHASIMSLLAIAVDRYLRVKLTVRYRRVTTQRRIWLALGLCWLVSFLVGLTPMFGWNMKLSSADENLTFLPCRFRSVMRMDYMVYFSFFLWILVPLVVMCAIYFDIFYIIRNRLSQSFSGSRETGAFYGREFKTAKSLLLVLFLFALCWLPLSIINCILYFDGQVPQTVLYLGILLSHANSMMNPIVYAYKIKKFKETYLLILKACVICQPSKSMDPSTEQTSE

[5] = molecular target: T4, Adenosine receptor A1 (Cavia porcellus, UniProt P47745); experiment: Binding affinity to guinea pig adenosine A1 receptor
T4 sequence (P47745 whole entry): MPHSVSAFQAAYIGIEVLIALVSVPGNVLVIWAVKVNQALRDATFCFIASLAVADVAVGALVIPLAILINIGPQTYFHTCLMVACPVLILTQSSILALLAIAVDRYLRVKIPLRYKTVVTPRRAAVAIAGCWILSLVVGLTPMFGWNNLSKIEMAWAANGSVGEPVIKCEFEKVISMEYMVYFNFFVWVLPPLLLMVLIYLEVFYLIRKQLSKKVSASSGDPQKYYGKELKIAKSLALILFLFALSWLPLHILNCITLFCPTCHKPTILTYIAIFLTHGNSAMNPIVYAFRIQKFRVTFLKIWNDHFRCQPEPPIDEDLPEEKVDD

[6] = molecular target: Adenosine receptor A2a (Cavia porcellus, UniProt P46616); experiment: Binding affinity to guinea pig adenosine A2A receptor
Adenosine receptor A2a (Cavia porcellus, UniProt P46616), sequence (P46616 whole entry): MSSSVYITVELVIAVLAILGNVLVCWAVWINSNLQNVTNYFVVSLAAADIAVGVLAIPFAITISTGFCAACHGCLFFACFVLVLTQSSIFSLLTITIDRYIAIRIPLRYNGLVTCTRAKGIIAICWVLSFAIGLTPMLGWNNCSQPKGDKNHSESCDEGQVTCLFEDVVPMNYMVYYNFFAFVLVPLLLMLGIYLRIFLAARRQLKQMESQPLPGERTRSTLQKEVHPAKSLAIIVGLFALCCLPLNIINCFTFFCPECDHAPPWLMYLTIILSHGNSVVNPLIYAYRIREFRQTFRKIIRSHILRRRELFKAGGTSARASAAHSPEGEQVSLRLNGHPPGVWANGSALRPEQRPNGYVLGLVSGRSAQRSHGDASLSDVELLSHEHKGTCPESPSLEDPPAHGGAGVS

[7] = molecular target: T5, Adenosine receptor A3 (Rattus norvegicus, UniProt P28647)
T5 sequence (P28647 whole entry): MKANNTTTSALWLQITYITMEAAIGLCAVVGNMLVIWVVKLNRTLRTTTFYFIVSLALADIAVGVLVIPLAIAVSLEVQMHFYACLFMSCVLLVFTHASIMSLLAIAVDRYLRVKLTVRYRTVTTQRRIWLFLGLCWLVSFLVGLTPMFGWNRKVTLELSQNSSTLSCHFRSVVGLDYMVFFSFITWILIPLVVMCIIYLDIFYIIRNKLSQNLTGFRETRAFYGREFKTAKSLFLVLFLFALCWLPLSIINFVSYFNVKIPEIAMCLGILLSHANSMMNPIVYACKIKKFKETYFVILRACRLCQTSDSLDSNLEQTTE
Description: Binding affinity to rat adenosine A3 receptor

COc1cc(-c2nc(NC(C)=O)sc2-c2ccncc2)cc(OC)c1OC
Kb [1]: 3.2 µM
Ki [2]: > 10 µM
Ki [3]: > 10 µM

Cn1cnc2c(N[C@H]3C[C@H]4CC[C@@H]3C4)ncnc21
Ki [4]: 0.0414 µM
Ki [5]: 0.375 µM
Ki [6]: 3.75 µM

Cn1c(=O)c2[nH]cnc2n(C)c1=O [THEOPHYLLINE]
Ki [7]: 85 µM
